Patent US10766882B2, “1,2-naphthoquinone based derivative and method of preparing the same” (YUNGJIN PHARM. CO., LTD., priority 2013, dated 2020)

Experiments:
Cells = assay: Measurement of lactate change amount within cells; assay type: cell-based; details: PCA extract of cells, lactate measured from supernatant (Megazyme, K-LATE)
How it was run: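 Cells were extracted in 6% perchloric acid and centrifuged (13,000 rpm, 10 min), and the dried pellet was weighed. The supernatant was neutralised with 1 M KOH, brought up in 0.33 M potassium phosphate pH 7.5 and re-centrifuged. Lactate was measured in this supernatant with a commercial lactate kit.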

C57BLKS/J db/db mice = assay: Weight loss effects and blood sugar in diabetic mice (db/db); assay type: in vivo; details: four weeks, vs 0.1% SLS controls
Description: 7 week-old C57BLKS/J db/db mice (chales river laboratories Japan, Inc) having genetic diabetic characteristics available from ORIENTBIO were prepared. Two mice were raised in each polycarbonate breeding cage (200 W×260 L×130H (mm), Three-shine) in which temperature was 22 to 24° C., relative humidity was 30 to 50%, illuminance was 150 to 300 lux, night and day were 12 hours, and exhaust was performed at 10 to 15 air changes per hour. As a feed, low fat diet (11.9 kcal % fat, 5053, Labdiet) manufactured by ORIENTBIO was used. The feed was contained in a feeder and free intake was allowed. As drinking water, water, which was contained in a 250 mL polycarbonate based bottle, purified through a filter and a sterilizer was used and free intake was allowed.
The compound according to Example 1 synthesized in the present invention was orally administered to three C57BLKS/J db/db mice in amounts of 40 mg/kg, 80 mg/kg, and 120 mg/kg, respectively, once every day for four weeks. For administration, a disposable syringe fitted with a sonde for oral administration was used and 10 ml/kg of the compound was orally administered into the stomach. As controls, three C57BLKS/J db/db mice were administered 0.1% SLS in an amount of 120 mg/kg in the same manner as described above. After administration, a time-dependent weight increase ratio, weight change, and intake amount were measured and results are illustrated in FIG. 7 below. In addition, blood sugar was measured and results are illustrated in FIG. 8 below.
Weights of the experimental animals were measured immediately before administration of a test material and six times a week from an administration initiation day to a test termination day. Increased total weights were calculated by subtracting weights measured on an experiment initiation day from weights measured one day before an experiment termination day. Food intake amounts were calculated by measuring feed supply amounts and remaining amounts twice a week from an initiation day of test material administration to a test termination day for each individual. Blood sugar was measured before an administration initiation day of the test material and once a week between an administration initiation day and a test termination day.

[1] = Exp. Ex. 4, FIG. 7: 7 week-old db/db mice, 40, 80, 120 mg/kg oral once every day

Compound: CC(C)c1nc2c([nH]1)C(=O)C(=O)c1ccccc1-2 [Example 1, 2-isopropyl-1H-naphtho[2,1-d]imidazole-4,5-dione]
- Lactate change amount within cells (nmol/mg cell) (Cells): 6.1 nmol/mg cell
- intake amount (C57BLKS/J db/db mice; [1]): significantly decreased
- weight change (C57BLKS/J db/db mice; [1]): significantly decreased
- weight increase ratio (C57BLKS/J db/db mice; [1]): significantly decreased
- blood sugar amount (C57BLKS/J db/db mice; Exp. Ex. 4, FIG. 8: 7 week-old db/db mice, 40, 80, 120 mg/kg oral once every day, measured once a week): significantly decreased
